Data set [1] is described as follows: I3A levels in fecal material, liver and serum after I3A in drinking water. The format is in vivo, mice (male B6 129SF1/J). The conditions noted are these: WD and sugar water containing I3A vs same WD and SW without I3A. From the text: Animal experiments. Male B6 129SF1/J mice at 6 weeks of age were obtained from Jackson Laboratories (Bar Harbor, ME). Mice were acclimatized to the animal facility for one week. At the start of the experiment, mice were randomly divided into four groups (n=10 for each group). Three of the four groups were fed ad libitum a Western diet (WD) with 40% Kcal from fat and containing 0.15% cholesterol (D12079B, Research Diets) and a sugar water (SW) solution (23.1 g/L d-fructose+18.9 g/L d-glucose) as previously described (DIAMOND model (15)). […] The WD group was fed WD and drank sugar water. […] The treatments were continued for another 8 weeks. Water bottles containing SW and I3A or only SW were changed every other day. A fourth group of mice was fed a low-fat control diet (D12450B, Research Diets) and normal water for 16 weeks (CN group) (FIG. 9A). FIG. 9A presents the study design. Mice belonging to the same treatment group were housed together (5 mice/cage). Mice were maintained on 12:12-h light-dark cycles. All procedures were performed in accordance with Texas A&M University Health Sciences Center Institutional Animal Care and Use Committee guidelines under an approved animal use protocol (AUP #2017-0145).
Sample collection. […] FIG. 9B presents the sampling scheme. All fecal pellets were flash frozen in liquid nitrogen after collection. […]

Data set [2] relates to AMPK. The experiment in a line: AMPK Western blot analysis of liver tissue of WD mice. Format: in vivo, mice (male B6 129SF1/J). The conditions noted are these: week 16; dose-dependent, reverses WD-induced downregulation. The text has this:
Animal experiments. Male B6 129SF1/J mice at 6 weeks of age were obtained from Jackson Laboratories (Bar Harbor, ME). Mice were acclimatized to the animal facility for one week. At the start of the experiment, mice were randomly divided into four groups (n=10 for each group). Three of the four groups were fed ad libitum a Western diet (WD) with 40% Kcal from fat and containing 0.15% cholesterol (D12079B, Research Diets) and a sugar water (SW) solution (23.1 g/L d-fructose+18.9 g/L d-glucose) as previously described (DIAMOND model (15)). After 8 weeks, the three groups of WD-fed mice were randomly selected for treatment with vehicle (WD group) or low (WD-50 group) or high dose (WD-100 group) of […]. The WD group was fed WD and drank sugar water. The WD-50 and WD-100 groups were fed WD and drank sugar water containing, respectively, 50 or 100 mg […] per kg body weight. The treatments were continued for another 8 weeks. Water bottles containing SW and […] or only SW were changed every other day. […] The protein concentration was determined using the BCA protein assay kit (Pierce). […] Proteins were quantified by normalizing the intensity of the protein band of interest to the intensity of the j-actin band in the same lane using the Image Lab software (Bio-Rad, Hercules, CA).
For orientation: Immunoblotting shows a protein as a band on a membrane.

Consider one compound from US20240189279A1, “IMMUNOMODULATORY COMPOSITIONS AND METHODS OF USE THEREOF” (THE TEXAS A&M UNIVERSITY SYSTEM, priority 2022, published 2024).

`O=C([O-])Cc1c[nH]c2ccccc12.[Na+]` [I3A, Indole-3-acetate sodium salt]: the “I3A levels in fecal material, liver and serum” value in data set [1] is “increased I3A levels in fecal material, the liver and serum”. Further, in data set [2], the “liver AMPK and p-AMPK levels” value is on record as “increased both AMPK as well as p-AMPK”.
